Data as given in article PMC6754500, “Ultra-long-acting tunable biodegradable and removable controlled release implants for drug delivery” (Nature Communications, 2019).
≈ marks a conversion by molar mass, not a printed value. Structures can show the parent of a compound that is named as a salt. Where two headings read alike, the source gives them in different places.

Experiments:
[1] = cited from earlier work; for pKa: Supplementary Table 1; for LogP: log of drug partition coefficient, ref drugbank.ca
[2] = Saturation concentration (solubility) of drugs in NMP; assay type: physicochemical; conditions: quantified by HPLC; for solubility at 24 h: 40 °C, organic solvent or mixture, thermodynamic from solid
Experimental: The saturation concentration of a panel of fourteen (14) antiretroviral drugs in NMP was determined. For each drug, 100 mg was weighed into individual vials and 100 mg of NMP was added to each vial. The mixture was stirred at 40 °C for 24 h. […] Sample aliquots (1–2 mg, n = 4) were collected from the saturated supernatant and diluted with acetonitrile (ACN). Drug concentration in the saturated aliquots was determined by HPLC analysis.

HIV-1 = conditions: cited from earlier work; for IC90: Supplementary Table 1
[3] = Saturation solubility in PBS with or without 2% solutol; assay type: physicochemical; conditions: for solubility: HPLC
HIV-1JR-CSF = experiment: In vitro HIV-1 inhibition in TZM-bl cells; assay type: cell-based; conditions: Human immunodeficiency virus 1, read-out: Effective concentration required to inhibit virus replication by 50% (IC50), DTG eluted (24 h in PBS) from solidified DTG-ISFI stored 6 months at 25 °C
Experimental: DTG-ISFI formulation was stored for 6 months at 25 °C and then solidified in PBS. The concentration of DTG eluted from the solidified implant after 24 h incubation in PBS was determined by HPLC and its HIV inhibitory activity was assessed using TZM-bl cells as described in the methods section.
Viral particles were collected in tissue culture medium that was centrifugated at 2000×g for 20 min at 4 °C to remove cell debris. […] Infected TZM-bl cells were stained using a solution containing 4 µM potassium ferrocyanide, 4 µM potassium ferricyanide, 2 µM magnesium chloride, 0.4 mg/ml X-gal[55],[56] and stained cells counted. TZM-bl cells were cultured at 37 °C 10% CO2 in TZM-bl medium (Dulbecco’s Modified Eagle Medium (Sigma) supplemented with 10% heat-inactivated fetal bovine serum, 25 mM HEPES, 500 units/ml penicillin, 50 µg/ml streptomycin and 2 mM L-glutamine (Cellgro)), and regularly checked for morphology by microscope.
Cells were regularly checked for morphology by microscopy. […] Luciferase activity was measured with a SpectraMax M3 Spectrometer (Molecular Devices, Sunnyvale, CA) and the results normalized to the luciferase activity of cells infected with HIV in the absence of DTG and expressed as a percentage of decrease in luciferase activity. Activity was measured in 3 independent experiments, each dilution measured in quadruplicate.

[4] = pH 7; cited from earlier work

Row | Compound | pKa [1] | LogP [1] | solubility at 24 h ([2]; N-methyl-2-pyrrolidone (NMP)) [mg/mL] | IC90 (HIV-1) [µg/mL] | also measured
1 | COC(=O)N[C@H](C(=O)N[C@@H](Cc1ccccc1)[C@@H](O)CN(Cc1ccc(-c2ccccn2)cc1)NC(=O)[C@@H](NC(=O)OC)C(C)(C)C)C(C)(C)C [Atazanavir] | 4.3 | 4.5 | 328 ± 2 (≈ 465 mM) | – | Protein-adjusted IC90 (PA-IC90) (HIV-1): 0.014 µg/mL
2 | CC(C)CN(C[C@@H](O)[C@H](Cc1ccccc1)NC(=O)O[C@H]1CO[C@H]2OCC[C@H]21)S(=O)(=O)c1ccc(N)cc1 [Darunavir] | – | – | – | 0.00243 (≈ 4.44e-06 mM) | solubility at 24 h ([2]; N-methyl-2-pyrrolidone): 511 ± 2 mg/mL (≈ 933 mM); Protein-adjusted IC90 (PA-IC90) (HIV-1): 0.0024 µg/mL
3 | C[C@@H]1CCO[C@H]2Cn3cc(C(=O)NCc4ccc(F)cc4F)c(=O)c(O)c3C(=O)N12 [Dolutegravir] | – | 2.2 | 255 ± 4 (≈ 608 mM) | – | Solubility in PBS + 2% solutol relative to PBS with no solutol ([3]; 37 °C): ~ 6 fold; solubility ([3]; PBS + 2% solutol, pH 7.4, aqueous with cosolvent or surfactant or cyclodextrin, thermodynamic from solid, 37 °C): 0.564 ± 0.0036 mg/mL; solubility ([3]; PBS with no solutol, 37 °C, read-out: Solubility in PBS with no solutol): 0.091 mg/mL (≈ 0.217 mM); in vitro protein-adjusted IC90 for HIV-1 (HIV-1): 0.064 µg/mL; IC50 (HIV-1JR-CSF): 0.0021 µg/mL (≈ 5.01e-06 mM)
4 | O=C1Nc2ccc(Cl)cc2[C@@](C#CC2CC2)(C(F)(F)F)O1 [Efavirenz] | – | 4.6 | 118 ± 2 (≈ 374 mM) | – | –
5 | Nc1nc(=O)n([C@@H]2CS[C@H](CO)O2)cc1F [Emtricitabine] | – | – | 202 ± 3 (≈ 817 mM) | 0.051 (≈ 0.000206 mM) | –
6 | Cc1cc(C#N)cc(C)c1Oc1nc(Nc2ccc(C#N)cc2)nc(N)c1Br [Etravirine] | 3.75 | 5.54 | 122 ± 2 (≈ 280 mM) | 0.0013 (≈ 2.99e-06 mM) | –
7 | Nc1ccn([C@@H]2CS[C@H](CO)O2)c(=O)n1 [Lamivudine] | – | – | 250 ± 3 (≈ 1090 mM) | – | –
8 | CCN1C[C@H](C)n2c(c(O)c3c(=O)n(Cc4ccc(F)c(Cl)c4)nc(C(=O)NC)c32)C1=O [MK-2048] | – | – | – | – | Saturation solubility in NMP ([2]; N-methyl-2-pyrrolidone): 715 ± 5 mg/mL; Solubility in water [4]: < 0.1 mg/mL; Solubility in PBS + 2% solutol relative to PBS with no solutol ([3]; pH 7.4): ~ 9 fold; in vitro 90% inhibitory concentration (IC90) (HIV-1; against HIV-1): ~ 0.033 μg/mL; Protein-adjusted IC90 (PA-IC90) (HIV-1): 0.033 µg/mL
9 | Cc1ccnc2c1NC(=O)c1cccnc1N2C1CC1 [Nevirapine] | 2.8 | 2.5 | – | 0.04 (≈ 0.00015 mM) | –
10 | Cc1nnc(C(=O)NC(C)(C)c2nc(C(=O)NCc3ccc(F)cc3)c(O)c(=O)n2C)o1 [Raltegravir] | 6.3 | -0.39 | – | 0.00053 (≈ 1.19e-06 mM) | solubility at 24 h ([2]; N-methyl-2-pyrrolidone): 54 ± 2 mg/mL (≈ 122 mM)
11 | Cc1cc(/C=C/C#N)cc(C)c1Nc1ccnc(Nc2ccc(C#N)cc2)n1 [Rilpivirine] | – | 4.86 | 228 ± 5 (≈ 622 mM) | 0.0125 (≈ 3.41e-05 mM) | Protein-adjusted IC90 (PA-IC90) (HIV-1): 0.012 µg/mL
12 | CC(C)c1nc(CN(C)C(=O)N[C@H](C(=O)N[C@@H](Cc2ccccc2)C[C@H](O)[C@H](Cc2ccccc2)NC(=O)OCc2cncs2)C(C)C)cs1 [Ritonavir] | – | – | – | 2.1 (≈ 0.00291 mM) | –
13 | Cc1cn([C@H]2C=C[C@@H](CO)O2)c(=O)[nH]c1=O [Stavudine] | 10.26 | -0.7 | 248 ± 3 (≈ 1110 mM) | 0.03 to 0.3 | –
14 | CC(C)OC(=O)OCOP(=O)(CO[C@H](C)Cn1cnc2c(N)ncnc21)OCOC(=O)OC(C)C [TenofovirDisoproxil Fumarate] | – | – | 156 ± 2 | 0.00554 | –
